{"source": "paper PMC5725799", "about": "“Comparative binding properties of the tau PET tracers THK5117, THK5351, PBB3, and T807 in postmortem Alzheimer brains” (Alzheimer's Research & Therapy, 2017)", "test_system": "tau", "assay": "^11C-THK5351 autoradiography and competition on large frozen AD brain sections", "type": "binding, human", "set-up": "Total Binding / NSP Binding: unit not given here", "protocol": "Adjacent sections were used for autoradiography with ^11C-THK5351, ^11C-PBB3, and ^18F-T807. The frozen sections were allowed to reach room temperature, incubated for 30 minutes at room temperature with ^11C-THK5351 (0.4–0.56 nM; specific activity 356–532 GBq/μmol) or ^11C-PBB3 (0.25–0.34 nM; specific activity 442–794 GBq/μmol) or for 55 minutes at room temperature with ^18F-T807 (0.04 nM; specific activity 281 GBq/μmol). We used 10 μM unlabeled THK5351, 10 μM unlabeled PBB3, and 10 μM unlabeled T807 to determine the extent of nonspecific binding for each tracer. The sections were rinsed three times for 5 minutes each with cold binding buffer, followed by a quick dip in cold distilled water. The sections were dried and exposed for 1 h (for ^11C-THK5351 and ^11C-PBB3) or for 3 h (^18 F-T807) on a phosphor imaging plate and then read using the BAS-2500 phosphor imager.\nFor all the autoradiography studies, the regions of interest were drawn manually on the autoradiogram using multigauge software and were used for the semiquantitative analyses. Photostimulated luminescence per square millimeter (PSL/mm^2) was transformed to picomoles per cubic millimeter using a transformation factor that took into account the resolution of the image, the pixel value for the concentration of ligand, and the thickness of the sections: (PSL/mm^2 value)/([pixel value per pmol] × [(resolution/1000)^2] × [cryosection thickness]/1000).", "key": {"[1]": {"conditions": "AD1, Basal ganglia, vs Unlabelled T807"}, "[2]": {"conditions": "AD1, Basal ganglia, vs Unlabelled THK5351"}, "[3]": {"conditions": "AD1, Frontal cortex, vs Unlabelled T807"}, "[4]": {"conditions": "AD1, Frontal cortex, vs Unlabelled THK5351"}, "[5]": {"conditions": "AD1, Insula, vs Unlabelled T807"}, "[6]": {"conditions": "AD1, Insula, vs Unlabelled THK5351"}, "[7]": {"conditions": "AD1, Temporal cortex, vs Unlabelled T807"}, "[8]": {"conditions": "AD1, Temporal cortex, vs Unlabelled THK5351"}, "[9]": {"conditions": "AD2, Basal ganglia, vs Unlabelled T807"}, "[10]": {"conditions": "AD2, Basal ganglia, vs Unlabelled THK5351"}, "[11]": {"conditions": "AD2, Frontal cortex, vs Unlabelled T807"}, "[12]": {"conditions": "AD2, Frontal cortex, vs Unlabelled THK5351"}, "[13]": {"conditions": "AD2, Insula, vs Unlabelled T807"}, "[14]": {"conditions": "AD2, Insula, vs Unlabelled THK5351"}, "[15]": {"conditions": "AD2, Temporal cortex, vs Unlabelled T807"}, "[16]": {"conditions": "AD2, Temporal cortex, vs Unlabelled THK5351"}, "[17]": {"conditions": "AD3, Basal ganglia, vs Unlabelled T807"}, "[18]": {"conditions": "AD3, Basal ganglia, vs Unlabelled THK5351"}, "[19]": {"conditions": "AD3, Frontal cortex, vs Unlabelled T807"}, "[20]": {"conditions": "AD3, Frontal cortex, vs Unlabelled THK5351"}, "[21]": {"conditions": "AD3, Insula, vs Unlabelled T807"}, "[22]": {"conditions": "AD3, Insula, vs Unlabelled THK5351"}, "[23]": {"conditions": "AD3, Temporal cortex, vs Unlabelled T807"}, "[24]": {"conditions": "AD3, Temporal cortex, vs Unlabelled THK5351"}}, "data": [{"molecule": "[11CH3]Nc1ccc(-c2ccc3cc(OC[C@H](O)CF)ccc3n2)cn1", "note": "[^11C-THK5351, (S)-1-fluoro-3-(2-(6-([^11C]methylamino)pyridin-3-yl)quinolin-6-yloxy)propan-2-ol]", "values": [{"measurement": "% of specific binding", "setting": "[1]", "value": 41, "unit": "%"}, {"measurement": "NSP Binding", "setting": "[1]", "value": 10866}, {"measurement": "Specific Binding", "setting": "[1]", "value": 7578}, {"measurement": "Total Binding", "setting": "[1]", "value": 18444}, {"measurement": "% of specific binding", "setting": "[2]", "value": 40, "unit": "%"}, {"measurement": "NSP Binding", "setting": "[2]", "value": 7577}, {"measurement": "Specific Binding", "setting": "[2]", "value": 5118}, {"measurement": "Total Binding", "setting": "[2]", "value": 12694}, {"measurement": "% of specific binding", "setting": "[3]", "value": 24, "unit": "%"}, {"measurement": "NSP Binding", "setting": "[3]", "value": 15579}, {"measurement": "Specific Binding", "setting": "[3]", "value": 4789}, {"measurement": "Total Binding", "setting": "[3]", "value": 20368}, {"measurement": "% of specific binding", "setting": "[4]", "value": 40, "unit": "%"}, {"measurement": "NSP Binding", "setting": "[4]", "value": 8920}, {"measurement": "Specific Binding", "setting": "[4]", "value": 5917}, {"measurement": "Total Binding", "setting": "[4]", "value": 14837}, {"measurement": "% of specific binding", "setting": "[5]", "value": 25, "unit": "%"}, {"measurement": "NSP Binding", "setting": "[5]", "value": 13255}, {"measurement": "Specific Binding", "setting": "[5]", "value": 4421}, {"measurement": "Total Binding", "setting": "[5]", "value": 17677}, {"measurement": "% of specific binding", "setting": "[6]", "value": 33, "unit": "%"}, {"measurement": "NSP Binding", "setting": "[6]", "value": 8376}, {"measurement": "Specific Binding", "setting": "[6]", "value": 4085}, {"measurement": "Total Binding", "setting": "[6]", "value": 12461}, {"measurement": "% of specific binding", "setting": "[7]", "value": 14, "unit": "%"}, {"measurement": "NSP Binding", "setting": "[7]", "value": 14662}, {"measurement": "Specific Binding", "setting": "[7]", "value": 2328}, {"measurement": "Total Binding", "setting": "[7]", "value": 16990}, {"measurement": "% of specific binding", "setting": "[8]", "value": 29, "unit": "%"}, {"measurement": "NSP Binding", "setting": "[8]", "value": 8202}, {"measurement": "Specific Binding", "setting": "[8]", "value": 3386}, {"measurement": "Total Binding", "setting": "[8]", "value": 11587}, {"measurement": "% of specific binding", "setting": "[9]", "value": 38, "unit": "%"}, {"measurement": "NSP Binding", "setting": "[9]", "value": 11830}, {"measurement": "Specific Binding", "setting": "[9]", "value": 7177}, {"measurement": "Total Binding", "setting": "[9]", "value": 19008}, {"measurement": "% of specific binding", "setting": "[10]", "value": 68, "unit": "%"}, {"measurement": "NSP Binding", "setting": "[10]", "value": 6390}, {"measurement": "Specific Binding", "setting": "[10]", "value": 13566}, {"measurement": "Total Binding", "setting": "[10]", "value": 19956}, {"measurement": "% of specific binding", "setting": "[11]", "value": 18, "unit": "%"}, {"measurement": "NSP Binding", "setting": "[11]", "value": 14824}, {"measurement": "Specific Binding", "setting": "[11]", "value": 3344}, {"measurement": "Total Binding", "setting": "[11]", "value": 18167}, {"measurement": "% of specific binding", "setting": "[12]", "value": 69, "unit": "%"}, {"measurement": "NSP Binding", "setting": "[12]", "value": 6755}, {"measurement": "Specific Binding", "setting": "[12]", "value": 15381}, {"measurement": "Total Binding", "setting": "[12]", "value": 22136}, {"measurement": "% of specific binding", "setting": "[13]", "value": 28, "unit": "%"}, {"measurement": "NSP Binding", "setting": "[13]", "value": 13363}, {"measurement": "Specific Binding", "setting": "[13]", "value": 5076}, {"measurement": "Total Binding", "setting": "[13]", "value": 18439}, {"measurement": "% of specific binding", "setting": "[14]", "value": 59, "unit": "%"}, {"measurement": "NSP Binding", "setting": "[14]", "value": 6886}, {"measurement": "Specific Binding", "setting": "[14]", "value": 9948}, {"measurement": "Total Binding", "setting": "[14]", "value": 16834}, {"measurement": "% of specific binding", "setting": "[15]", "value": 39, "unit": "%"}, {"measurement": "NSP Binding", "setting": "[15]", "value": 13589}, {"measurement": "Specific Binding", "setting": "[15]", "value": 8683}, {"measurement": "Total Binding", "setting": "[15]", "value": 22271}, {"measurement": "% of specific binding", "setting": "[16]", "value": 59, "unit": "%"}, {"measurement": "NSP Binding", "setting": "[16]", "value": 6673}, {"measurement": "Specific Binding", "setting": "[16]", "value": 9437}, {"measurement": "Total Binding", "setting": "[16]", "value": 16110}, {"measurement": "% of specific binding", "setting": "[17]", "value": 47, "unit": "%"}, {"measurement": "NSP Binding", "setting": "[17]", "value": 10872}, {"measurement": "Specific Binding", "setting": "[17]", "value": 9821}, {"measurement": "Total Binding", "setting": "[17]", "value": 20693}, {"measurement": "% of specific binding", "setting": "[18]", "value": 38, "unit": "%"}, {"measurement": "NSP Binding", "setting": "[18]", "value": 6733}, {"measurement": "Specific Binding", "setting": "[18]", "value": 4207}, {"measurement": "Total Binding", "setting": "[18]", "value": 10939}, {"measurement": "% of specific binding", "setting": "[19]", "value": 38, "unit": "%"}, {"measurement": "NSP Binding", "setting": "[19]", "value": 14792}, {"measurement": "Specific Binding", "setting": "[19]", "value": 8959}, {"measurement": "Total Binding", "setting": "[19]", "value": 23751}, {"measurement": "% of specific binding", "setting": "[20]", "value": 48, "unit": "%"}, {"measurement": "NSP Binding", "setting": "[20]", "value": 7079}, {"measurement": "Specific Binding", "setting": "[20]", "value": 6431}, {"measurement": "Total Binding", "setting": "[20]", "value": 13509}, {"measurement": "% of specific binding", "setting": "[21]", "value": 29, "unit": "%"}, {"measurement": "NSP Binding", "setting": "[21]", "value": 13574}, {"measurement": "Specific Binding", "setting": "[21]", "value": 5447}, {"measurement": "Total Binding", "setting": "[21]", "value": 19021}, {"measurement": "% of specific binding", "setting": "[22]", "value": 37, "unit": "%"}, {"measurement": "NSP Binding", "setting": "[22]", "value": 6903}, {"measurement": "Specific Binding", "setting": "[22]", "value": 3972}, {"measurement": "Total Binding", "setting": "[22]", "value": 10875}, {"measurement": "% of specific binding", "setting": "[23]", "value": 34, "unit": "%"}, {"measurement": "NSP Binding", "setting": "[23]", "value": 12673}, {"measurement": "Specific Binding", "setting": "[23]", "value": 6479}, {"measurement": "Total Binding", "setting": "[23]", "value": 19153}, {"measurement": "% of specific binding", "setting": "[24]", "value": 36, "unit": "%"}, {"measurement": "NSP Binding", "setting": "[24]", "value": 6717}, {"measurement": "Specific Binding", "setting": "[24]", "value": 3813}, {"measurement": "Total Binding", "setting": "[24]", "value": 10529}]}]}
